Measured values: patent publication US20200237875A1, “FORMULATIONS AND METHODS FOR TREATMENT OF FIBROMYALGIA AND RELATED MYOFASCIAL PAIN DISORDERS” (SYNLEV PHARMACEUTICALS CORPORATION, priority 2019, published 2020)
Entries after “also recorded” stand apart in the source; their conditions may differ.

What was measured:
fibromyalgia = conditions: cited from earlier work
[1] = test system: patients with fibromyalgia and insulin resistance; assay: Retrospective review of Numeric Pain Rating Scale (NPRS) pain scores before and after treatment; format: in vivo, human
Method: Data was obtained from the review of various patient populations as followed: First, the pain scores of two populations of patients were reviewed. Group 1 consisted of 16 patients with fibromyalgia and insulin resistance (HbA1c values of 5.7 or higher) who were prescribed metformin 500 mg twice a day for insulin resistance. In this group, metformin had been added to the “standard treatment” for fibromyalgia. The “standard treatment” (ST) consisted of norepinephrine reuptake inhibitors (amitriptyline, duloxetine or milnacipran) and/or membrane-stabilizing agents (gabapentin or pregabalin). […]
Second, the pain scores of another group of patients with insulin resistance and fibromyalgia, Group 2, who had been treated with […], a class of drugs that reduce insulin resistance by a mechanism different from metformin were analyzed. […]
Because peripheral neuropathies (including small fiber neuropathy) that are associated with insulin resistance may start at very early stages of pre-diabetes, there is a growing trend among experts to begin early pharmacological interventions to correct this abnormality, particularly when insulin resistance is associated with neuropathy or other risk factors. […] Pain scores were routinely recorded by the Numeric Pain Rating Scale (NPRS), at each clinical encounter. […]

[2] = in vivo; cited from earlier work

Row | Structure (SMILES) | NNT (numbers needed to treat) (fibromyalgia) | change in pain scores (NPRS), in words ([1]; Group 2, 10 patients: 5 metformin alone, 5 PPD-4 inhibitor alone, no ST) | retention of the analgesic effect ([1]; long-term, refers to a Table 3 that is not given) | individuals intolerant to metformin [2]
1 | CN(C)CCC=C1c2ccccc2CCc2ccccc21 [amitriptyline] | 4 |  |  | 
2 | CNCC[C@H](Oc1cccc2ccccc12)c1cccs1 [duloxetine] | 6 |  |  | 
3 | CN(C)C(=N)N=C(N)N [metformin] |  | comparable reductions in pain scores; also recorded: this improvement was only partial | long-term retention of the analgesic effect | at least 20%
